Several values for one entry are separate records, joined by “and”; a condition that tells them apart may be missing. Equal values may be shown once. Entries after “also recorded” stand apart in the source; their conditions may differ. Read-outs that look alike come from different tables or passages of the source.
Experiments:
[1] = Body weight of treated mice; assay type: in vivo; conditions: high dose, in one week
Experimental: In humans, the chemotherapy 5-Fluorouracil is a backbone of colon cancer therapy, however, has significant toxic side effects. Mice tolerate a higher dose of 5-Fluorouracil compared to humans on a per weight per day basis. When a high dose of 5-Fluorouracil is administered to mice, they lose 20% of their total weight in one week (FIG. 12A). […] This is in direct contrast to the improved inhibition of tumor burden and treatment effect identified by using the nanoparticle formulation of LY2090314 (FIGS. 5A-5C).

wildtype colon organoids = experiment: Wildtype colon organoid growth, resazurin viability assay; assay type: cell-based, Mouse and human; conditions: for ranking by on-target vs off-target function in organoids: order: LY2090314, SAR502250, A-1070722, CHIR 99021; for growth of wildtype colon organoids: resazurin assay
Experimental: (§1) Mouse and human organoids were grown in standard organoid culture systems using MATRIGEL® and Advanced DMEM/F12 media with 5% fetal bovine serum, and GLUTAMAX® supplementation. Dose responses of the labeled drugs were applied to the organoid cultures and resazurin viability assays were performed after 4 days of culture. Relative growth is assessed by conversion of resazurin to resorufin and is shown on the y axis.
To further generalize the approach using different GSK3 inhibitors, two other compounds were identified which via GSK3 inhibition, induce Wnt responses in colon organoids. […] Using primary wildtype colon crypts, the capacity of SAR502250 to promote wildtype organoid growth was evaluated using a resazurin metabolic based assay.

Wnt signaling = experiment: TOP-TdTomato Wnt reporter in wildtype organoids; assay type: cell-based
[2] = system: organoids that harbor an APC mutation; experiment: Growth of APC-mutant colon cancer organoid genotypes, resazurin assay; assay type: cell-based; conditions: at all concentrations; also with added KRAS, p53, SMAD4 mutations
Experimental: as §1
Same as FIG. 1, but the genotype of the organoids tested vary instead of being wildtype, they contain the mutations as indicated in the figure description.

[3] = system: Human colon cancers (colon tumor organoid lines); experiment: Human colon tumor organoid dose response, resazurin; assay type: cell-based; conditions: every human colon cancer, 4 days of culture
Experimental: Human colon cancers were collected from the operating room at MGH. Colon tumor organoids lines were generated from the resections and maintained in standard colon organoid culture conditions. Dose responses of LY2090314 were applied to the various human colon cancers and resazurin cell number counts were performed after 4 days of culture.

[4] = system: colon cancer organoids (AKPVT); experiment: AKPVT colon cancer organoid growth, resazurin based assay; assay type: cell-based, mouse; conditions: for inhibition of AKPVT colon cancer organoid growth: single agent
Experimental: FIG. 14 is a two-dimensional dose response of RSPO1 by LY2090314 on inhibiting colon cancer organoid growth (AKPVT), assessed by resazurin based assay.
Viability decrease was assessed using a resazurin based metabolic/proliferation assay.

colon cancer organoids = experiment: LY2090314 together with 5-FU on colon cancer organoids; assay type: cell-based; conditions: combination with 5-FU
From the text: LY2090314 was used together with 5-FU on colon cancer organoids. […] The cell killing or tumor inhibition effect of LY2090314 is additive with 5-FU. Thus, LY2090314 can be added to many of the existing chemotherapy regimens for colon cancer with improved outcomes.

[5] = in DMSO; cited from earlier work
β-catenin = conditions: 20 nM; cited from earlier work
GSK3 = conditions: cited from earlier work
melanoma cell lines = conditions: cited from earlier work
[6] = rats; cited from earlier work
[7] = dogs; cited from earlier work
[8] = humans; cited from earlier work
[9] = cited from earlier work
A375 xenograft = conditions: 25 mg/kg Q3D, i.v., cited from earlier work

Molecule: O=c1[nH]cc(F)c(=O)[nH]1 [5-Fluorouracil]
- loss of total weight [1]: 20%

Molecule: COc1ccc2c(NC(=O)Nc3cccc(C(F)(F)F)n3)ccnc2c1 [A-1070722]
- ranking by on-target vs off-target function in organoids (wildtype colon organoids): best drugs in decreasing order of efficacy

Molecule: CN1CCN(S(=O)(=O)c2ccc(-c3cnc(N)c(C(=O)Nc4cccnc4)n3)cc2)CC1 [AZD2858]
- growth of wildtype colon organoids (wildtype colon organoids): capacity to grow normal wildtype organoids; also recorded: clear low nanomolar capacity to support normal colon organoid growth
- Wnt response, TOP-TdTomato reporter activity (Wnt signaling): promote a Wnt response; also recorded: confirmed to be on target Wnt signaling

Molecule: Cc1c[nH]c(-c2cnc(NCCNc3ccc(C#N)cn3)nc2-c2ccc(Cl)cc2Cl)n1 [CHIR 99021]
- ranking by on-target vs off-target function in organoids (wildtype colon organoids): best drugs in decreasing order of efficacy

Molecule: O=C1NC(=O)C(c2cnc3ccccn23)=C1c1cn2c3c(cc(F)cc13)CN(C(=O)N1CCCCC1)CC2 [LY2090314]
- ranking by on-target vs off-target function in organoids (wildtype colon organoids): best drugs in decreasing order of efficacy
- growth of wildtype colon organoids (wildtype colon organoids): potently permits the growth; also recorded: general improvement in growth; also recorded: more potent than SAR502250
- growth of organoids that harbor an APC mutation [2]: inhibited the growth
- susceptibility of human colon cancer organoids [3]: showed susceptibility
- combination effect with a Wnt agonist on tumor organoid growth ([4]; LY2090314 combined with RSPO1): synergistic effect
- cell killing or tumor inhibition effect together with 5-FU (colon cancer organoids): additive
- solubility [5]: 31 mg/mL and 60.48 mM
- induction of Axin2 (β-catenin): induction of Axin2
- stabilization of β-catenin total protein (β-catenin): time-dependent stabilization
- fold selectivity relative to a large panel of kinases (GSK3): highly selective towards GSK3
- activity in cell lines resistant to PLX4032 (melanoma cell lines): remains active
- apoptotic cell death (melanoma cell lines; irrespective of BRAF mutation status): potently induces apoptotic cell death
- half-life [6]: approximately 0.4 hours
- half-life [7]: ~0.7 h
- half-life [8]: 1.8 to 3.4 h
- clearance ([9]; approximating hepatic blood flow): high clearance
- volume of distribution ([9]; in vivo): 1 to 2 L/kg
- Axin2 gene expression in vivo (A375 xenograft): elevates Axin2 gene expression
- single agent activity in the A375 xenograft model (A375 xenograft): demonstrates single agent activity
- effect on efficacy of DTIC (A375 xenograft; with DTIC): enhances the efficacy of DTIC

Molecule: Cn1c(N2CCO[C@@H](c3ccc(F)cc3)C2)nc(-c2ccncn2)cc1=O [SAR502250]
- ranking by on-target vs off-target function in organoids (wildtype colon organoids): best drugs in decreasing order of efficacy
- growth of wildtype colon organoids (wildtype colon organoids): capacity to grow normal wildtype organoids; also recorded: can independently permit wildtype organoid growth
- inhibition of AKPVT colon cancer organoid growth [4]: more modest inhibition than LY2090314
- Wnt response, TOP-TdTomato reporter activity (Wnt signaling): promote a Wnt response

B1: RSPO1: concentrated RSPO1, a Wnt agonist (protein, UniProt Q2MKA7 21-263, looked up)
R-spondin-1: SRGIKGKRQRRISAEGSQACAKGCELCSEVNGCLKCSPKLFILLERNDIRQVGVCLPSCPPGYFDARNPDMNKCIKCKIEHCEACFSHNFCTKCKEGLYLHKGRCYPACPEGSSAANGTMECSSPAQCEMSEWSPWGPCSKKQQLCGFRRGSEERTRRVLHAPVGDHAACSDTKETRRCTVRRVPCPEGQKRRKGGQGRRENANRNLARKESKEAGAGSRRRKGQQQQQQQGTVGPLTSAGPA
- reduction in viability of colon cancer organoids ([4]; RSPO1 in the presence of low nanomolar LY2090314): more than 40%
- inhibition of AKPVT colon cancer organoid growth [4]: modest effect

Reference: patent US12440497B2, “Compositions and methods for enhancing Wnt signaling for treating cancer” (Massachusetts Institute of Technology, priority 2021, dated 2025)
